Patent publication US20260035403A1, “NUCLEOSIDE LINE-1 INHIBITORS” (TRANSPOSON THERAPEUTICS, INC., priority 2022, published 2026)

Test system: human LINE-1
Assay: Human LINE-1 retrotransposition assay (HeLa cell-based dual-luciferase reporter)
Settings: Homo sapiens, HeLa, 72 h, Human LINE-1 activity inhibition; HeLa cells, reporter plasmid pYX017, Firefly/Renilla, 72 h incubation
Experimental: Representative Compounds of the Disclosure were tested for inhibition of retrotransposition activity of human LINE-1 in HeLa cells according to the following procedure.
HeLa cervical cancer cells were cultivated at 37° C. in a humidified 5% CO2 incubator in Dulbecco's Modified Eagle's Medium (DMEM)—high glucose, with 4500 mg/L glucose, L-glutamine, sodium pyruvate and sodium bicarbonate (Sigma), supplemented with 10% of heat inactivated fetal bovine serum (Thermo Fisher).
Assays were performed using reporter plasmid pYX017 as described (Xie, et al., 2011) with several modifications. The reporter assay was performed in 96-well white optical bottom plates. HeLa cells were seeded in wells 24 h prior to transfection and compound treatment so that cells were approximately 30% confluent on the day of transfection. Different cell plating densities were tested and a density of 2×10^3 cells was determined to be optimal.
Compounds were resuspended in DMSO. Serial dilutions (1:3) were prepared in DMSO. Medium containing different concentrations of the compounds were prepared by adding 2 μl of the compound dilution to 1 ml of the culture medium. The final concentration of DMSO in the medium was 0.2%.
FuGENE® HD transfection reagent (Promega, E2311, Lot 382574 and Lot 397842) was used to transfect the plasmids into the cells. The transfection reagent: DNA mixture was prepared in OpiMEM (Thermo Fisher) according to manufacturer's instructions. Different ratios of transfection reagent to DNA were tested and a ratio of 3:1 was determined to be optimal. Culture medium was removed from the cells and discarded. The transfection reagent: DNA mixture (5 μl) was mixed with the compound containing medium (100 μl/well) and this was added onto the cells of each well. Cells were incubated at 37° C./5% CO2 for different incubation time. A 72 h incubation time was determined to be optimal.
Luciferase reporter activity was quantified with the Dual-Luciferase® Reporter Assay System (Promega) according to manufacturer's instructions for multiwell plates except that cells were lysed directly on the multiwell plate with 30 μl of the passive lysis buffer (PLB) for 20 min at room temperature, with gentle shaking to ensure complete cell lysis.
Firefly and Renilla luciferase signals were measured using a SpectraMax i3× Multi-Mode Microplate Reader. Integration times of 100 ms and 10 ms were used to measure the Firefly and Renilla signals respectively. Relative L1 activity is calculated as Firefly/Renilla*1000 or Firefly/Renilla*10,000. Dose response inhibition data were fit to a four parameter logistic equation using non-linear regression (using Graphpad Prism 8), to determine IC50 values for each inhibitor.

IC50 [µM]	SMILES
14	COc1nc(N)nc2c1ncn2[C@H]1C[C@H](O)[C@](CO)(CF)O1 [compound 163, (2R,3S,5R)-5-(2-amino-6-methoxy-9H-purin-9-yl)-2-(fluoromethyl)-2-(hydroxymethyl)tetrahydrofuran-3-ol]
24	C#C[C@@]1(COC)C=C[C@H](n2cc(C)c(=O)[nH]c2=O)O1 [compound 106, 1-((2R,5R)-5-ethynyl-5-(methoxymethyl)-2,5-dihydrofuran-2-yl)-5-methylpyrimidine-2,4(1H,3H)-dione]
3.17	Nc1nc(=O)n([C@H]2C[C@@H]3OC=C[C@]3(CO)O2)cc1F [compound 139, 4-amino-5-fluoro-1-((2R,3aS,6aR)-6a-(hydroxymethyl)-2,3,3a,6a-tetrahydrofuro[3,2-b]furan-2-yl)pyrimidin-2(1H)-one]
2.81	CC[C@]1(CO)O[C@@H](n2cnc3c(N)nc(Cl)nc32)[C@@H](O)[C@@H]1O [compound 193, (2R,3S,4S,5R)-5-(6-amino-2-chloro-9H-purin-9-yl)-2-ethyl-2-(hydroxymethyl)tetrahydrofuran-3,4-diol]
1.94	CC[C@]1(CO)O[C@@H](n2cnc3c(N)ncnc32)[C@@H](O)[C@@H]1O [compound 194, (2R,3S,4S,5R)-5-(6-amino-9H-purin-9-yl)-2-ethyl-2-(hydroxymethyl)tetrahydrofuran-3,4-diol]
> 50	C#C[C@@]1(CO)C=C[C@H](n2cc(SC(F)(F)F)c(=O)[nH]c2=O)O1 [compound 73, 1-((2R,5R)-5-ethynyl-5-(hydroxymethyl)-2,5-dihydrofuran-2-yl)-5-((trifluoromethyl)thio)pyrimidine-2,4(1H,3H)-dione]
5.08	C#C[C@]1(CO)OC(n2ccc(=O)[nH]c2=O)C[C@@H]1O (stereo partly drawn) [compound 51, 1-((4S,5R)-5-ethynyl-4-hydroxy-5-(hydroxymethyl)tetrahydrofuran-2-yl)pyrimidine-2,4(1H,3H)-dione]
1.28	C=C[C@]1(CO)O[C@H](n2ccc(N)nc2=O)C[C@@H]1O [compound 89, 4-amino-1-((2S,4S,5R)-4-hydroxy-5-(hydroxymethyl)-5-vinyltetrahydrofuran-2-yl)pyrimidin-2(1H)-one]
4.4	C#C[C@]1(CO)OC(n2cnc3c(O)ncnc32)C[C@@H]1O (stereo partly drawn) [compound 81, 9-((4S,5R)-5-ethynyl-4-hydroxy-5-(hydroxymethyl)tetrahydrofuran-2-yl)-9H-purin-6-ol]
~50	CC[C@]1(CO)O[C@@H](n2cnc3c(N)nc(Cl)nc32)C[C@@H]1O [compound 190, (2R,3S,5R)-5-(6-amino-2-chloro-9H-purin-9-yl)-2-ethyl-2-(hydroxymethyl)tetrahydrofuran-3-ol]
7.43	C#C[C@]1(CO)OC(n2cnc3c(OC)ncnc32)C[C@@H]1O (stereo partly drawn) [compound 61, (2R,3S)-2-ethynyl-2-(hydroxymethyl)-5-(6-methoxy-9H-purin-9-yl)tetrahydrofuran-3-ol]
> 25	Cc1cn([C@H]2C=C[C@](CO)(C3CC3)O2)c(=O)[nH]c1=O [compound 47, 1-((2R,5S)-5-cyclopropyl-5-(hydroxymethyl)-2,5-dihydrofuran-2-yl)-5-methylpyrimidine-2,4(1H,3H)-dione]
> 50	C#C[C@]1(CO)OC(n2cc(C3CC3)c(=O)[nH]c2=O)C[C@@H]1O (stereo partly drawn) [compound 52, 5-cyclopropyl-1-((4S,5R)-5-ethynyl-4-hydroxy-5-(hydroxymethyl)tetrahydrofuran-2-yl)pyrimidine-2,4(1H,3H)-dione]

More lines, now with the values behind:

SMILES	IC50 [µM]
C#C[C@]1(CO)OC(n2cc(Br)c(=O)[nH]c2=O)C[C@@H]1O (stereo partly drawn) [compound 44, 5-bromo-1-((4S,5R)-5-ethynyl-4-hydroxy-5-(hydroxymethyl)tetrahydrofuran-2-yl)pyrimidine-2,4(1H,3H)-dione]	2.2
CC[C@]1(CO)O[C@@H](n2cnc3c(OC)nc(N)nc32)C[C@@H]1O [Cpd. No. 125, (2R,3S,5R)-5-(2-amino-6-methoxy-9H-purin-9-yl)-2-ethyl-2-(hydroxymethyl)tetrahydrofuran-3-ol]	0.11
CC#C[C@@]1(CO)O[C@@H](n2cc(C)c(=O)[nH]c2=O)C[C@H]1O [compound 24, 1-((2R,4R,5S)-4-hydroxy-5-(hydroxymethyl)-5-(prop-1-yn-1-yl)tetrahydrofuran-2-yl)-5-methylpyrimidine-2,4(1H,3H)-dione]	> 50
C#C[C@]1(CO)OC(n2cc(F)c(=O)[nH]c2=O)C[C@@H]1O (stereo partly drawn) [compound 45, 1-((4S,5R)-5-ethynyl-4-hydroxy-5-(hydroxymethyl)tetrahydrofuran-2-yl)-5-fluoropyrimidine-2,4(1H,3H)-dione]	3.81
C#C[C@]1(CO)OC(n2cnc(C(N)=O)n2)C[C@@H]1O (stereo partly drawn) [Cpd. No. 11, 1-((4S,5R)-5-ethynyl-4-hydroxy-5-(hydroxymethyl)tetrahydrofuran-2-yl)-1H-1,2,4-triazole-3-carboxamide]	> 50
C#C[C@]1(CO)O[C@H](n2nc(C)c3c(N)nc(F)nc32)C[C@@H]1O [Cpd. No. 3, (2R,3S,5S)-5-(4-amino-6-fluoro-3-methyl-1H-pyrazolo[3,4-d]pyrimidin-1-yl)-2-ethynyl-2-(hydroxymethyl)tetrahydrofuran-3-ol]	0.041
C=C[C@]1(CO)O[C@@H](n2cnc3c(NC4CC4)nc(N)nc32)C[C@@H]1O [Cpd. No. 4, (2R,3S,5R)-5-(2-amino-6-(cyclopropylamino)-9H-purin-9-yl)-2-(hydroxymethyl)-2-vinyltetrahydrofuran-3-ol]	0.401
C=C[C@]1(CO)O[C@@H](n2cnc3c(OC)nc(N)nc32)C[C@@H]1O [Cpd. No. 102, (2R,3S,5R)-5-(2-amino-6-methoxy-9H-purin-9-yl)-2-(hydroxymethyl)-2-vinyltetrahydrofuran-3-ol]	1.78
C#C[C@]1(CO)O[C@H](n2ccc(N)nc2=O)C[C@@H]1O [compound 32, 4-amino-1-((2S,4S,5R)-5-ethynyl-4-hydroxy-5-(hydroxymethyl)tetrahydrofuran-2-yl)pyrimidin-2(1H)-one]	0.84
C#C[C@@]1(CO)C[C@@H](Sc2ccc(C)cc2)[C@H](n2ccc(=O)[nH]c2=O)O1 [compound 31, 1-((2R,3R,5R)-5-ethynyl-5-(hydroxymethyl)-3-(p-tolylthio)tetrahydrofuran-2-yl)pyrimidine-2,4(1H,3H)-dione]	> 50
C#C[C@@]1(CO)C=C[C@H](n2cc(CC)c(=O)[nH]c2=O)O1 [compound 35, 5-ethyl-1-((2R,5R)-5-ethynyl-5-(hydroxymethyl)-2,5-dihydrofuran-2-yl)pyrimidine-2,4(1H,3H)-dione]	> 50
C=C[C@]1(CO)O[C@@H](n2cnc3c(O)ncnc32)C[C@@H]1O [Cpd. No. 100, 9-((2R,4S,5R)-4-hydroxy-5-(hydroxymethyl)-5-vinyltetrahydrofuran-2-yl)-9H-purin-6-ol]	1.7
C#C[C@@]1(CO)C=C[C@H](n2cc(F)c(N)nc2=O)O1 [compound 40, 4-amino-1-((2R,5R)-5-ethynyl-5-(hydroxymethyl)-2,5-dihydrofuran-2-yl)-5-fluoropyrimidin-2(1H)-one]	> 50
C#C[C@]1(CO)O[C@@H](n2cc(C)c(=O)[nH]c2=O)C[C@H]1O [compound 29, 1-((2R,4R,5R)-5-ethynyl-4-hydroxy-5-(hydroxymethyl)tetrahydrofuran-2-yl)-5-methylpyrimidine-2,4(1H,3H)-dione]	> 50
C#C[C@@]1(CO)C=C[C@H](n2ccc(=O)[nH]c2=O)O1 [compound 30, 1-((2R,5R)-5-ethynyl-5-(hydroxymethyl)-2,5-dihydrofuran-2-yl)pyrimidine-2,4(1H,3H)-dione]	16
[2H]C([2H])([2H])c1cn([C@H]2C=C[C@@](C#C)(CO)O2)c(=O)[nH]c1=O [compound 37, 1-((2R,5R)-5-ethynyl-5-(hydroxymethyl)-2,5-dihydrofuran-2-yl)-5-(methyl-d3)pyrimidine-2,4(1H,3H)-dione]	0.067
CC[C@]1(CO)OC(n2cc(Br)c(N)nc2=O)C[C@@H]1O (stereo partly drawn) [Cpd. No. 70, 4-amino-5-bromo-1-((4S,5R)-5-ethyl-4-hydroxy-5-(hydroxymethyl)tetrahydrofuran-2-yl)pyrimidin-2(1H)-one]	0.432

Same assay, conditions: Human LINE-1 activity inhibition; HeLa cells, reporter plasmid pYX017, Firefly/Renilla, 72 h incubation

SMILES	IC50 [µM]
CC[C@]1(CO)O[C@@H](n2cnc3c(N)nc(F)nc32)[C@@H](F)[C@@H]1O [compound 191, (2R,3R,4S,5R)-5-(6-amino-2-fluoro-9H-purin-9-yl)-2-ethyl-4-fluoro-2-(hydroxymethyl)tetrahydrofuran-3-ol]	56
C#C[C@]1(CO)OC(n2cnc3c(O)ncnc32)C[C@@H]1O (stereo partly drawn) [compound 81, 9-((4S,5R)-5-ethynyl-4-hydroxy-5-(hydroxymethyl)tetrahydrofuran-2-yl)-9H-purin-6-ol]	7.45
